Columns and labels:
[1] = system: JIMT1; details: HER2+ basal-like JIMT1, with HGF; cited from earlier work
[2] = system: BT474 tumors; details: HER2+ luminal-like BT474 tumors, with NRG1b; cited from earlier work
[3] = system: immunocompetent mouse models of triple negative and HER2+ breast cancer with late stage spontaneously developing tumors; experiment: MNA small scale screening using 5 FDA approved drugs, CC3 and multiplex IHC; assay type: in vivo; details: for infiltration of cytotoxic neutrophils: mIHC close to the drug releasing well
Description: Panobinostat induces immunogenic cell death associated with Neuropilin-1 neutrophil infiltration: We have developed a novel pre-clinical model system—the Multiplex Nanodose Assay (MNA)—that enables a comprehensive single cell analysis of drug-mediated effects in complex tumor microenvironment (TME). The MNA is based on a recently developed implantable microdevice that performs drug sensitivity testing of multiple drugs at once inside a living tissue (FIGS. 18A and 18B) (Jonas et al., Sci Transl Med 7:284ra57, 2015; Watson et al., Cell Syst 1-14, 2018, doi.org/10.1016/j.cels.2018.02.001). The drugs are passively released into distinct tumor regions and we analyze the drug mediated effects in close proximity to the drug releasing well by multiplex immunohistochemistry (mIHC) (FIG. 18C). This is a sequential IHC staining on a single formalin fixed paraffin embedded (FFPE) tissue for multiparametric characterization of single cells similar to flow cytometry, except that the cells are studies in their natural intact environment (Tsujikawa et al., Cell Rep 19:203-17, 2017; Chang et al., Proc Annu Int Conf IEEE Eng Med Biol Soc EMBS. 4046-9, 2017). The spatial relation of the functionally different populations facilitates identification of the drug-mediated cellular mechanisms. This knowledge can be then translated to rapidly identify rational combination treatment strategies.
With the MNA, we have performed a small scale screening using 5 FDA approved drugs in immunocompetent mouse models of triple negative and HER2+ breast cancer with late stage spontaneously developing tumors. […]
Since panobinostat-mediated effects in vivo are likely linked to effective anti-tumor immunity and increased response to PD-1 blockade therapy, we took a closer look at the immediate interaction between dying tumor cells and tumor microenvironment. […] In the multiplex readout panel, we incorporated stains that interrogate basic drug-sensitivity testing, epithelial, mesenchymal, endothelial compartment, but mainly multiple markers of immune composition and activity. […]

[4] = system: MMTV-PyMT tumors; experiment: Multiplex nanodose assay (MNA): implantable microdevice in tumor, CC3/MHC-I IHC and multiplex IHC adjacent to the drug-releasing well; assay type: in vivo, mouse; details: mIHC, 3 days
Description: Multiplex nanodose assay (MNA) system and translation to breast cancer patients: The illustrated microdevice (FIG. 6A) is a non-toxic 4×0.8 mm resin cylinder with eighteen 200 μm deep reservoirs, that are packed with active compounds (drugs or drug combinations) in solid form. The device is implanted and stays in the tumor tissue for up to 8 days; after which the tumor/tissue surrounding the device is harvested with the device in place and formalin fixed and paraffin embedded (FFPE). The tumor tissue is analyzed adjacent to each drug well using multiplex IHC (mIHC) with antibodies that interrogate one or more of cleaved caspase activity, epithelial, mesenchymal, endothelial status, as well as immune composition and activity. […] Signal of individual markers are merged and the overlap is quantified.
(FIG. 8A). […] Mean intensity value of the CC3 signal was measured adjacent to the drug releasing reservoir and was normalized to control PEG only loaded reservoir. […] (n=3 regions of interest in one sample for (FIG. 8F) and n=3 drug loaded wells for (FIG. 8D); significance was calculated by a two-tailed t-test with equal variance. Of note, early microdevice studies validated each well to be a biological replicate due to heterogeneous nature of tumors in general (Jonas et al., Sci Transl. Med. 7, 284ra59, 2015). Microfluidic ex vivo platform maintains the viability of the primary mouse tumor tissue. […]

SMILES: CS(=O)(=O)CCNCc1ccc(-c2ccc3ncnc(Nc4ccc(OCc5cccc(F)c5)c(Cl)c4)c3c2)o1 [Lapatinib]
- apoptosis under TKI in presence of hepatocyte growth factor (HGF) [1]: decreasing apoptosis to normal levels
- proliferation under TKI in presence of neuregulin-1b (NRG1b) [2]: restores the proliferation

SMILES: CCOc1cc2ncc(C#N)c(Nc3ccc(OCc4ccccn4)c(Cl)c3)c2cc1NC(=O)/C=C/CN(C)C [Neratinib]
- apoptosis under TKI in presence of hepatocyte growth factor (HGF) [1]: decreasing apoptosis to normal levels
- proliferation under TKI in presence of neuregulin-1b (NRG1b) [2]: restores the proliferation

SMILES: Cc1[nH]c2ccccc2c1CCNCc1ccc(/C=C/C(=O)NO)cc1 [panobinostat]
- share of Neuropilin-1 positive cells that are cytotoxic neutrophils (Myeloperoxidase staining) ([3]; at the panobinostat well): ~85%
- infiltration of cytotoxic neutrophils [3]: increased infiltration of cytotoxic neutrophils
- infiltration of cytotoxic neutrophils ([3]; listed as Panobinostat): robust increase of neutrophils
- infiltrate of cytotoxic neutrophils at the reservoir [4]: heavy infiltrate of cytotoxic neutrophils
